Laboratory results as given in US9273006B2, “Anabolic compounds for treating and preventing bone loss diseases” (SYDDANSK UNIVERSITET, priority 2012, dated 2016).
Read-outs that look alike come from different tables or passages of the source.

Tested on: hMSC-TERT
Conditions: 6 days after induction, hMSC-TERT
[1] = 1 μM inhibitor in osteogenic inducing media
[2] = 10 μM inhibitor in osteogenic inducing media

| Compound | Relative ALP activity [1] | Relative ALP activity [2] |
| --- | --- | --- |
| CCCCCCCCCCCCCCCC(=O)OC(CC(=O)O)C[N+](C)(C)C.[Cl-] (racemic) [Palmitoyl-DL-carnitine Cl] | 0.9966 | 0.9612 |
| Nc1ncc2[nH]cnc2n1 [2-Aminopurine] | 1.017 | 0.6855 |
| Nc1ncnc2c1c(I)cn2[C@@H]1O[C@H](CO)[C@@H](O)[C@H]1O [5-Iodotubercidin] | 1.035 | Toxic |
| N#CC(C#N)=Cc1ccc([N+](=O)[O-])c(O)c1 [AG-126] | 0.9053 | 1.156 |
| N#CC(=Cc1ccc2[nH]ccc2c1)C(N)=C(C#N)C#N [AG-370] | 1.057 | 0.7902 |
| N#C/C(=C/c1ccc(O)c(O)c1)C(=O)NCc1ccccc1 [AG-490] | 0.9657 | 0.3482 |
| N#C/C(=C\c1ccc(O)c(O)c1)C(=O)Nc1ccccc1 [AG-494] | 0.8788 | 0.33 |
| COc1cc(/C=C(\C#N)C(N)=O)cc(CSc2nc3ccccc3s2)c1O [AG-825] | 0.8754 | 1.056 |
| CC(C)(C)c1cc(/C=C(\C#N)C(N)=S)cc(C(C)(C)C)c1O [AG-879] | 0.6801 | 0.7467 |
| COc1cc2ncc(-c3ccccc3)nc2cc1OC [AG-1296] | 0.7685 | 0.5376 |
| O=c1cc(-c2ccc(O)cc2)oc2cc(O)cc(O)c12 [Apigenin] | 0.9029 | 0.4027 |
| Cc1ccc(S(=O)(=O)/C=C/C#N)cc1 [BAY 11-7082] | 0.9356 | Toxic |
| O=C(O)c1ccc2nc(-c3ccccc3)c(-c3ccccc3)nc2c1 [BML-257] | 0.8443 | 0.7884 |
| CC(C)c1cnc(NC(=O)Cc2ccccc2)s1 [BML-259] | 1.001 | 0.7259 |
| OC[C@H]1O[C@@H](n2cnc3cc(Cl)c(Cl)cc32)[C@H](O)[C@@H]1O [DRB] | 0.9718 | 0.5043 |
| O=c1c(-c2ccc(O)cc2)coc2cc(O)ccc12 [Daidzein] | 1.14 | 1.025 |
| COc1c(C=O)c(O)cc2c1C(=O)c1ccccc1C2=O [Damnacanthal] | 0.8711 | 0.3273 |
| COC(=O)/C=C/c1cc(O)ccc1O [Erbstatin analog] | 0.8892 | 0.7022 |
| CN(C)CCCn1cc(C2=C(c3c[nH]c4ccccc34)C(=O)NC2=O)c2ccccc21 [GF 109203X] | 0.3532 | Toxic |
| O=C1Nc2ccc(I)cc2/C1=C/c1cc(Br)c(O)c(Br)c1 [GW 5074] | 0.7969 | 0.5773 |
| O=c1c(-c2ccc(O)cc2)coc2cc(O)cc(O)c12 [Genistein] | 1.215 | 0.7692 |
| CC1CNCCN1S(=O)(=O)c1cccc2cnccc12 (centres unmarked) [H-7] | 1.087 | 0.9015 |

| Compound | Relative ALP activity [1] | Relative ALP activity [2] |
| --- | --- | --- |
| NCCNS(=O)(=O)c1cccc2cnccc12 [H-9] | 0.9547 | 0.9783 |
| O=S(=O)(NCCNC/C=C/c1ccc(Br)cc1)c1cccc2cnccc12 [H-89] | 0.8924 | 0.3847 |
| NC(N)=NCCNS(=O)(=O)c1cccc2cnccc12 [HA-1004] | 0.9706 | 0.9424 |
| O=S(=O)(c1cccc2cnccc12)N1CCCNCC1 [HA-1077] | 1.02 | 0.908 |
| COCc1cc(O)c(O)c(O)c1-c1c(COC)cc(O)c(O)c1O [HBDDE] | 0.8861 | 0.7296 |
| O=C(O)c1cc(NCc2cc(O)ccc2O)ccc1O [HDBA] | 0.8708 | 0.9836 |
| O=P(O)(O)C(O)c1ccc2ccccc2c1 (centres unmarked) [HNMPA] | 0.864 | 0.8557 |
| Cc1cc(O)c2c(=O)c3c(O)cc(O)c4c5c(O)cc(O)c6c(=O)c7c(O)cc(C)c8c1c2c(c34)c(c78)c65 [Hypericin] | 0.8534 |  |
| O=C1Nc2ccccc2/C1=C1/Nc2ccccc2C1=O [Indirubin] | 0.3571 | 0.18 |
| CN([C@@H](Cc1ccc(OS(=O)(=O)c2cccc3cnccc23)cc1)C(=O)N1CCN(c2ccccc2)CC1)S(=O)(=O)c1cccc2cnccc12 [KN-62] | 0.956 | 0.9222 |
| COc1ccc(S(=O)(=O)N(CCO)c2ccccc2CN(C)C/C=C/c2ccc(Cl)cc2)cc1 [KN-93] | 0.7347 | 0.6802 |
| O=C1Cc2c([nH]c3ccc(Br)cc23)-c2ccccc2N1 [Kenpaullone] | 0.5044 | 0.2055 |
| C/C(O)=C(\C#N)C(=O)Nc1cc(Br)ccc1Br [LFM-A13] | 0.7381 | 0.9154 |
| O=c1cc(N2CCOCC2)oc2c(-c3ccccc3)cccc12 [LY 294002] | 0.8628 | 0.439 |
| O=C(O)c1cc(N(Cc2ccccc2O)Cc2cc(O)ccc2O)ccc1O [Lavendustin A] | 0.8641 | 0.4935 |
| O=S(=O)(c1cccc2c(I)cccc12)N1CCCNCC1 [ML-7] | 1.031 | 0.9564 |
| O=S(=O)(c1cccc2c(Cl)cccc12)N1CCCNCC1 [ML-9] | 0.9822 | 0.6879 |
| CC(C)n1cnc2c(NCc3ccccc3)nc(NCCO)nc21 [N9-Isopropyl-olomoucine] | 1.128 | 0.6666 |
| Cn1cnc2c(NCc3ccccc3)nc(NCCO)nc21 [Olomoucine] | 1.142 | 0.5408 |
| COc1cccc(-c2cc(=O)c3ccccc3o2)c1N [PD-98059] | 0.5617 | 0.6017 |
| Cc1ccc(-c2nn(C(C)(C)C)c3ncnc(N)c23)cc1 [PP1] | 0.9626 | 0.5665 |
| CC(C)(C)n1nc(-c2ccc(Cl)cc2)c2c(N)ncnc21 [PP2] | 0.8276 | 0.4269 |

| Compound | Relative ALP activity [1] | Relative ALP activity [2] |
| --- | --- | --- |
| Oc1cc(O)cc(/C=C/c2ccc(O)c(O)c2)c1 [Piceatannol] | 0.783 | 0.4885 |
| O.O.O=c1c(O)c(-c2ccc(O)c(O)c2)oc2cc(O)cc(O)c12 [Quercetin dihydrate] | 1.001 | 0.8354 |
| N#C/C(=C\c1cc(Cl)cc(Cl)c1)c1cccnc1 [RG-14620] | 0.8302 | 1.024 |
| CO[C@H]1C[C@@H]2CC[C@@H](C)[C@@](O)(O2)C(=O)C(=O)N2CCCC[C@H]2C(=O)O[C@H]([C@H](C)C[C@@H]2CC[C@@H](O)[C@H](OC)C2)CC(=O)[C@H](C)/C=C(\C)[C@@H](O)[C@@H](OC)C(=O)[C@H](C)C[C@H](C)/C=C/C=C/C=C/1C [Rapamycin] | 0.509 | 0.6057 |
| Cn1cc(C2=C(c3cn(CCCSC(=N)N)c4ccccc34)C(=O)NC2=O)c2ccccc21 [Ro 31-8220] | 0.3607 | Toxic |
| CC[C@H](CO)Nc1nc(NCc2ccccc2)c2ncn(C(C)C)c2n1 [Roscovitine] | 0.9865 | 0.3918 |
| CC(=O)c1c(O)c(C)c(O)c(Cc2c(O)c3c(c(C(=O)/C=C/c4ccccc4)c2O)OC(C)(C)C=C3)c1O [Rottlerin] | 0.3874 | Toxic |
| Oc1ccc(-c2nc(-c3ccc(F)cc3)c(-c3ccncc3)[nH]2)cc1 [SB-202190] | 0.7708 | 0.2703 |
| C[S+]([O-])c1ccc(-c2nc(-c3ccc(F)cc3)c(-c3ccncc3)[nH]2)cc1 (centres unmarked) [SB-203580] | 0.824 | 0.458 |
| Oc1c2ccccc2c2c3c(cccc13)N=N2 [SP 600125] | 0.5978 | 0.2913 |
| CC(C)c1cc(/C=C(\C#N)C(=O)NCCCc2ccccc2)cc(C(C)C)c1O [SU1498] | 0.8711 | 0.7853 |
| CN(C)c1ccc(/C=C2\C(=O)Nc3ccccc32)cc1 [SU 4312] | 0.7481 | 0.5349 |
| CCCCCCCCCCCCC/C=C/[C@@H](O)[C@@H](N)CO [Sphingosine] | 1.195 | Toxic |
| CN[C@@H]1C[C@H]2O[C@@](C)([C@@H]1OC)n1c3ccccc3c3c4c(c5c6ccccc6n2c5c31)C(=O)NC4 [Staurosporine] | TOXIC | Toxic |
| CC1=C(O)C(=O)[C@@H]2O[C@@H]2C1=O [Terreic acid] | 0.2721 | 0.338 |
| CC(C)(C)c1cc(C=C(C#N)C#N)cc(C(C)(C)C)c1O [Tyrphostin9] | 0.3388 | Toxic |
| N#CC(C#N)=Cc1ccc(O)c(O)c1 [Tyrphostin 23] | 0.9904 | 0.7067 |
| N#CC(C#N)=Cc1cc(O)c(O)c(O)c1 [Tyrphostin 25] | 0.9397 | 0.8233 |
| N#C/C(=C\c1ccc(O)c(O)c1)C(N)=O [Tyrphostin 46] | 1.179 | 0.9029 |
| N#C/C(=C\c1ccc(O)c(O)c1)C(N)=S [Tyrphostin 47] | 0.901 | 1.005 |
| N#CC(C#N)=C(N)/C(C#N)=C/c1cc(O)c(O)c(O)c1 [Tyrphostin 51] | 0.8997 | 0.8566 |
| N#CC(C#N)=Cc1cc(O)c(O)c([N+](=O)[O-])c1 [Tyrphostin AG 1288] | 0.8684 | 0.802 |
